Assay results: patent US20240216401A1, “COMBINATION THERAPY BY USING AKR1C3-ACTIVATED COMPOUND WITH IMMUNE CHECKPOINT INHIBITOR” (OBI Pharma, Inc., priority 2021, published 2024)
Values joined by “and” are separate entries in the source; they are usually repeats but may differ in a detail not shown here. Equal entries are not always repeated.

Columns and labels:
Type in all cases: in vivo, Mus musculus
[1] = test system: Calreticulin cells in tumor-infiltrating lymphocytes; experiment: Example 2: flow cytometry, percentage of Calreticulin cells in TILs; conditions: individual mice and group Mean; for CD45^− live cells (CD45^−ViaKrome405^weak) Cell count / Calreticulin cells (CD45^− Calreticulin^+) Cell count / Total CD45^− cells (CD45^−) Cell count: Cell count = Total cell × Total % × 10; for CD45^− live cells (CD45^−ViaKrome405^weak) CTL Gated % / CD45^− live cells (CD45^−ViaKrome405^weak) Total % / Calreticulin cells (CD45^− Calreticulin^+) CTL Gated % / Calreticulin cells (CD45^− Calreticulin^+) Total % / Total CD45^− cells (CD45^−) CD45^+ Gated % / Total CD45^− cells (CD45^−) Total %: TILs from tumor
Procedure: (§1) Mice were sacrificed by CO2 euthanasia at the end of the study duration, and the connective tissue around tumor was resected. The tumor samples were then weighed and cut equally into three sections if the tumor weight over 400 mg. The tumor tissue was prepared for the isolation of tumor-infiltrating lymphocytes (TILs). The rest of one section was fixed in 10% formaldehyde and embedded in paraffin; the other was stored at a temperature below −70° C.
(§2) The tumor samples were dissected into smaller fragments using scalpels and then digested with a cocktail of collagenase, DNase I, and Hyaluronidase (Collagenase #C5138, DNase I #D5025, Hyaluronidase #H6254, SigmaAldrich) for at least 2 hours.
(§3) Cells were stained with the fluorescently conjugated surface antibodies and incubated for 30 minutes at 4° C., and then resuspended in staining buffer for flow cytometric analysis. Flow cytometry was done using a Navios EX Flow Cytometer (Beckman Coulter). Data were analyzed using the Kaluza Analysis Software (Beckman Coulter).

[2] = test system: PD-L1^+ cells in tumor-infiltrating lymphocytes; experiment: Example 2: flow cytometry, percentage of PD-L1^+ cells in TILs
Procedure: as §1, §2, §3

[3] = test system: CTL cells (CD45^+CD8^+ T cells) in tumor-infiltrating lymphocytes; experiment: Example 2: flow cytometry, percentage of CTL cells in TILs
Procedure: as §1, §2, §3

[4] = G2: OBI-3424 0.3 mg/kg, 0.3 mg/kg
[5] = G2: OBI-3424 0.3 mg/kg, 0.3 mg/kg, group mean
[6] = G3: OBI-3424 1 mg/kg, 1 mg/kg, group mean
[7] = G2, OBI-3424 0.3 mg/kg, group Mean
[8] = G2, OBI-3424 0.3 mg/kg, individual animal, 0.3 mg/kg
[9] = G3, OBI-3424 1 mg/kg, group Mean
[10] = G3, OBI-3424 1 mg/kg, individual animal, 1 mg/kg

SMILES: C[C@H](OP(=O)(N1CC1)N1CC1)c1ccc([N+](=O)[O-])c(Oc2cccc(C(=O)N(C)C)c2)c1 [OBI-3424, (S)-1-(3-(3-N,N-dimethylaminocarbonyl)phenoxyl-4-mtrophenyl)-1-ethyl-N,N′-bis(ethylene)phosphoramidate]
- CD45^− live cells (CD45^−ViaKrome405^weak) Cell count [1, 4]: 39.37 ×10^5 and 25.28 ×10^5 and 83.81 ×10^5 and 1.35 ×10^5 and 29.90 ×10^5 and 5.87 ×10^5
- Calreticulin cells (CD45^− Calreticulin^+) Cell count [1, 4]: 5.54 ×10^5 and 1.27 ×10^5 and 10.26 ×10^5 and 0.06 ×10^5 and 1.11 ×10^5 and 0.19 ×10^5
- Total CD45^− cells (CD45^−) Cell count [1, 4]: 70.58 ×10^5 and 45.89 ×10^5 and 130.41 ×10^5 and 2.18 ×10^5 and 65.25 ×10^5 and 10.35 ×10^5
- CD45^− live cells (CD45^−ViaKrome405^weak) Cell count [1, 5]: 30.93 ×10^5
- Calreticulin cells (CD45^− Calreticulin^+) Cell count [1, 5]: 3.07 ×10^5
- Total CD45^− cells (CD45^−) Cell count [1, 5]: 54.11 ×10^5
- CD45^− live cells (CD45^−ViaKrome405^weak) CTL Gated % [1, 4]: 55.78% and 55.07% and 64.29% and 61.79% and 45.83% and 56.69%
- CD45^− live cells (CD45^−ViaKrome405^weak) Total % [1, 4]: 20.24% and 12.36% and 15.52% and 6.30% and 12.13% and 8.10%
- Calreticulin cells (CD45^− Calreticulin^+) CTL Gated % [1, 4]: 14.09% and 5.02% and 12.21% and 4.51% and 3.69% and 3.21%
- Calreticulin cells (CD45^− Calreticulin^+) Total % [1, 4]: 2.85% and 0.62% and 1.90% and 0.28% and 0.45% and 0.26%
- Total CD45^− cells (CD45^−) CD45^+ Gated % [1, 4]: 50.59% and 29.66% and 28.87% and 12.41% and 31.01% and 21.40%
- Total CD45^− cells (CD45^−) Total % [1, 4]: 36.29% and 22.44% and 24.15% and 10.20% and 26.47% and 14.28%
- CD45^− live cells (CD45^−ViaKrome405^weak) CTL Gated % [1, 5]: 56.58%
- CD45^− live cells (CD45^−ViaKrome405^weak) Total % [1, 5]: 12.44%
- Calreticulin cells (CD45^− Calreticulin^+) CTL Gated % [1, 5]: 7.12%
- Calreticulin cells (CD45^− Calreticulin^+) Total % [1, 5]: 1.06%
- Total CD45^− cells (CD45^−) CD45^+ Gated % [1, 5]: 28.99%
- Total CD45^− cells (CD45^−) Total % [1, 5]: 22.31%
- CD45^− live cells (CD45^−ViaKrome405^weak) Cell count ([1]; G3: OBI-3424 1 mg/kg, 1 mg/kg): 1.72 ×10^5 and 9.67 ×10^5 and 7.88 ×10^5 and 9.07 ×10^5 and 5.22 ×10^5 and 6.72 ×10^5
- Calreticulin cells (CD45^− Calreticulin^+) Cell count ([1]; G3: OBI-3424 1 mg/kg, 1 mg/kg): 0.05 ×10^5 and 0.25 ×10^5 (2×) and 0.88 ×10^5 and 0.19 ×10^5 and 0.12 ×10^5
- Total CD45^− cells (CD45^−) Cell count ([1]; G3: OBI-3424 1 mg/kg, 1 mg/kg): 2.45 ×10^5 and 15.22 ×10^5 and 11.73 ×10^5 and 11.65 ×10^5 and 8.38 ×10^5 and 8.94 ×10^5
- CD45^− live cells (CD45^−ViaKrome405^weak) Cell count [1, 6]: 6.71 ×10^5
- Calreticulin cells (CD45^− Calreticulin^+) Cell count [1, 6]: 0.29 ×10^5
- Total CD45^− cells (CD45^−) Cell count [1, 6]: 9.73 ×10^5
- CD45^− live cells (CD45^−ViaKrome405^weak) CTL Gated % ([1]; G3: OBI-3424 1 mg/kg, 1 mg/kg): 70.28% and 63.52% and 67.13% and 77.84% and 62.30% and 75.12%
- CD45^− live cells (CD45^−ViaKrome405^weak) Total % ([1]; G3: OBI-3424 1 mg/kg, 1 mg/kg): 5.94% and 7.66% and 11.16% and 9.18% and 7.02% and 8.30%
- Calreticulin cells (CD45^− Calreticulin^+) CTL Gated % ([1]; G3: OBI-3424 1 mg/kg, 1 mg/kg): 2.90% and 2.61% and 11.18% and 2.75% and 3.65% and 1.83%
- Calreticulin cells (CD45^− Calreticulin^+) Total % ([1]; G3: OBI-3424 1 mg/kg, 1 mg/kg): 0.17% and 0.20% and 1.25% and 0.25% and 0.26% and 0.15%
- Total CD45^− cells (CD45^−) CD45^+ Gated % ([1]; G3: OBI-3424 1 mg/kg, 1 mg/kg): 9.67% and 13.99% and 19.95% and 13.15% and 12.84% and 12.22%
- Total CD45^− cells (CD45^−) Total % ([1]; G3: OBI-3424 1 mg/kg, 1 mg/kg): 8.45% and 12.06% and 16.62% and 11.79% and 11.27% and 11.04%
- CD45^− live cells (CD45^−ViaKrome405^weak) CTL Gated % [1, 6]: 69.37%
- CD45^− live cells (CD45^−ViaKrome405^weak) Total % [1, 6]: 8.21%
- Calreticulin cells (CD45^− Calreticulin^+) CTL Gated % [1, 6]: 4.15%
- Calreticulin cells (CD45^− Calreticulin^+) Total % [1, 6]: 0.38%
- Total CD45^− cells (CD45^−) CD45^+ Gated % [1, 6]: 13.64%
- Total CD45^− cells (CD45^−) Total % [1, 6]: 11.87%
- PD-L1^+ cells (CD45^− PD-L1^+), CD45^− Gated % [2, 7]: 9.15%
- PD-L1^+ cells (CD45^− PD-L1^+), Cell count [2, 7]: 4.91 ×10^5
- PD-L1^+ cells (CD45^− PD-L1^+), Total % [2, 7]: 1.95%
- Total PD-L1^+ cells (PD-L1^+), Cell count [2, 7]: 9.60 ×10^5
- Total PD-L1^+ cells (PD-L1^+), Total % [2, 7]: 3.79%
- Total PD-L1^+ cells (PD-L1^+), Total cells Gated % [2, 7]: 5.18%
- PD-L1^+ cells (CD45^− PD-L1^+), CD45^− Gated % [2, 8]: 15.51% and 5.86% and 9.64% and 4.13% and 12.53% and 7.23%
- PD-L1^+ cells (CD45^− PD-L1^+), Cell count [2, 8]: 9.41 ×10^5 and 2.07 ×10^5 and 10.69 ×10^5 and 0.07 ×10^5 and 6.63 ×10^5 and 0.61 ×10^5
- PD-L1^+ cells (CD45^− PD-L1^+), Total % [2, 8]: 4.84% and 1.01% and 1.98% and 0.35% and 2.69% and 0.84%
- Total PD-L1^+ cells (PD-L1^+), Cell count [2, 8]: 14.43 ×10^5 and 6.01 ×10^5 and 24.62 ×10^5 and 0.29 ×10^5 and 10.67 ×10^5 and 1.56 ×10^5
- Total PD-L1^+ cells (PD-L1^+), Total % [2, 8]: 7.42% and 2.94% and 4.56% and 1.34% and 4.33% and 2.15%
- Total PD-L1^+ cells (PD-L1^+), Total cells Gated % [2, 8]: 11.84% and 3.97% and 5.50% and 1.44% and 5.16% and 3.16%
- PD-L1^+ cells (CD45^− PD-L1^+), CD45^− Gated % [2, 9]: 4.40%
- PD-L1^+ cells (CD45^− PD-L1^+), Cell count [2, 9]: 0.38 ×10^5
- PD-L1^+ cells (CD45^− PD-L1^+), Total % [2, 9]: 0.48%
- Total PD-L1^+ cells (PD-L1^+), Cell count [2, 9]: 1.61 ×10^5
- Total PD-L1^+ cells (PD-L1^+), Total % [2, 9]: 2.08%
- Total PD-L1^+ cells (PD-L1^+), Total cells Gated % [2, 9]: 2.24%
- PD-L1^+ cells (CD45^− PD-L1^+), CD45^− Gated % [2, 10]: 4.18% and 2.31% and 4.37% and 7.16% and 4.63%
- PD-L1^+ cells (CD45^− PD-L1^+), Cell count [2, 10]: 0.08 ×10^5 and 0.30 ×10^5 and 0.41 ×10^5 and 0.51 ×10^5 and 0.49 ×10^5 and 0.47 ×10^5
- PD-L1^+ cells (CD45^− PD-L1^+), Total % [2, 10]: 0.27% and 0.24% and 0.58% (2×) and 0.52% and 0.66%
- Total PD-L1^+ cells (PD-L1^+), Cell count [2, 10]: 0.46 ×10^5 and 1.50 ×10^5 and 2.03 ×10^5 and 1.69 ×10^5 and 1.67 ×10^5 and 2.32 ×10^5
- Total PD-L1^+ cells (PD-L1^+), Total % [2, 10]: 1.58% and 1.19% and 2.88% and 1.71% and 2.24% and 2.86%
- Total PD-L1^+ cells (PD-L1^+), Total cells Gated % [2, 10]: 1.66% and 1.26% and 3.32% and 1.80% and 2.39% and 3.03%
- CTL cells (CD45^+CD8^+ T cells) in TILs ([3]; Example 2, mean±SEM, OBI-3424 1 mg/kg, alone (G3) or with anti-hPD-1 (G6), vehicle 15.53±5.66%): 33.50±3.38%
- CD25^+ CTL cells (CD45^+ CD8^+CD25^+) Cell count (×10^5) ([3]; G2: 0.3 mg/kg, group mean): 2.93 ×10^5
- CD25^+ CTL cells (CD45^+CD8^+ CD25^+) CTL Gated % ([3]; G2: 0.3 mg/kg, group mean): 5.60%
- CD25^+ CTL cells (CD45^+CD8^+ CD25^+) Total % ([3]; G2: 0.3 mg/kg, group mean): 1.33%
- CD69^+ CTL cells (CD45^+ CD8^+CD69^+) CTL Gated % ([3]; G2: 0.3 mg/kg, group mean): 69.71%
- CD69^+ CTL cells (CD45^+ CD8^+CD69^+) Cell count (×10^5) ([3]; G2: 0.3 mg/kg, group mean): 40.97 ×10^5
